Measurements taken from the NIST ThermoML archive (doi:10.1021/je900266h).

Test: refractive index (Na D-line) (dimensionless); wn = mass fraction of the nth substance listed
Details: 101 kPa, Liquid, Standard Abbe refractometry

CCO [ethanol] + O
refractive index
Details	288.15 K	298.15 K	308.15 K	318.15 K
w1 = 0.02468	1.33491	1.33402	1.33282	1.33124
w1 = 0.0538	1.33686	1.33587	1.33455	1.33301
w1 = 0.07815	1.33854	1.33765	1.33619	1.33449
w1 = 0.1014	1.34032	1.33915	1.33771	1.3358
w1 = 0.1249	1.34209	1.34095	1.33923	1.33736
w1 = 0.1528	1.34443	1.34294	1.34104	1.33895
w1 = 0.1778	1.34627	1.34475	1.34272	1.34054
w1 = 0.2036	1.34829	1.34651	1.34435	1.3418
w1 = 0.225	1.34976	1.34781	1.34551	1.34311
w1 = 0.247	1.35137	1.34934	1.34682	1.34418
w1 = 0.2699	1.35281	1.35056	1.3479	1.34519
w1 = 0.2955	1.35435	1.35212	1.34922	1.3464
w1 = 0.3241	1.35595	1.35363	1.35053	1.34772
w1 = 0.3468	1.3572	1.3546	1.35164	1.34853
w1 = 0.3723	1.35843	1.35567	1.35252	1.34932
w1 = 0.3959	1.3597	1.35665	1.35342	1.34997
w1 = 0.4255	1.36073	1.35765	1.35448	1.35103
w1 = 0.4462	1.36161	1.35831	1.35501	1.35147
w1 = 0.4735	1.36235	1.35919	1.35566	1.35212
w1 = 0.4969	1.36316	1.35969	1.3562	1.35251
w1 = 0.5239	1.36378	1.36042	1.35667	1.35301
w1 = 0.5458	1.36431	1.36078	1.35731	1.3533
w1 = 0.5709	1.36482	1.36134	1.3577	1.35369
w1 = 0.5972	1.36547	1.36186	1.35801	1.35385
w1 = 0.6203	1.36582	1.36199	1.35825	1.35417
w1 = 0.6467	1.36603	1.36243	1.35839	1.3543
w1 = 0.6694	1.36636	1.36263	1.35867	1.35455
w1 = 0.6959	1.36665	1.36288	1.35875	1.35454
w1 = 0.7187	1.36663	1.36306	1.35892	1.35469
w1 = 0.7494	1.36702	1.36313	1.35895	1.35471
w1 = 0.7672	1.36703	1.36317	1.35902	1.35475
w1 = 0.7993	1.36694	1.36318	1.35879	1.35484
w1 = 0.8187	1.36705	1.3632	1.35887	1.35478
w1 = 0.8451	1.36683	1.36289	1.3586	1.35457
w1 = 0.867	1.36684	1.36278	1.35844	1.35421
w1 = 0.9028	1.36637	1.3623	1.35782	1.35374
w1 = 0.9235	1.36603	1.36196	1.35743	1.35333
w1 = 0.9481	1.36528	1.36123	1.35677	1.35255
w1 = 0.9752	1.36454	1.36037	1.3559	1.35171
w1 = 1	1.36344	1.35922	1.35477	1.35068
